Each compound was assayed on p62/SQSTM1 (assay: Western blot, p62/SQSTM1 levels in PANC-1 cells).
Assay type: cell-based, human
Source text: FIG. 2. BL-918 is a potent ULK1 agonist and autophagy inducer (A) Representative images of PANC-1 cells stably expressing the mCherry-EGFP-LC3 tandem reporter treated with ULK1 agonists. Nuclei stained with Hoechst 33342, autophagosomes are shown in the EGFP channel and autolysosomes in the mCherry channel. Fold change in the number of autophagosomes (B) and autolysosomes (C) puncta in ULK1 agonist treated cells. (D) Western blot of PANC-1 cells treated with DMSO, bafilomycin and ULK1 agonists±bafilomycin; probed for p-ULK1 (S317), ULK1, p62, b-actin, LC3-I and LC3-II. Quantifications of western blot for changes in the ratio of p-ULK1 (S317):ULK1 (E), p62 (F) and LC31:LC3II (G). All data shown are mean±SEM, n=3, *p<0.05, ** p<0.01, one-way ANOVA with Dunnett's multiple comparisons test.
FIG. 4. ULKTACs retain ULK1 agonist activity and subsequent induction of autophagy (A) Western blot of PANC-1 cells treated with ULKTACs±bafilomycin, probed for p-ULK1 (S317), ULK1, p62, b-Actin, LC31 and LC3II. Quantifications of (A) for the pULK1:ULK1 ratio (B) LC3I:LC3II ratio (C) and changes in p62 (D). (E) Representative images of PANC-1 cells stably expressing the mCherry-EGFP-LC3 tandem reporter treated with ULKTACs w/or w/o bafilomycin. Nuclei stained with Hoechst 33342, autophagosomes are shown in the EGFP channel and autolysosomes in the mCherry channel. […]
Cells were homogenised in protein lysis buffer consisting of 0.1 M Tris pH 8.0, 0.1 M NaCl, 5% glycerol, IGEPAL® CA-630 (#18896. Sigma-Aldrich) and 5 mM EDTA, 0.1 M N-ethyl maleimide (ThermoFisher, #23030) and protease inhibitor (Cell Signalling Technologies, #5871). Protein concentrations were determined using the BCA assay to ensure equal loading. […]
Membranes were then incubated with horseradish peroxidase (HRP)-conjugated secondary antibodies (Rabbit #7074 and Mouse #7076) purchased from Cell Signalling Technologies for 1 hour and the HRP signal was detected using EZ-ECL Enhanced Chemiluminescence Detection Kit for HRP (#20-500-500, Sartorius), and imaged with an Alliance Q9 Advanced (UVITec). […]
In the case of `O=C(Nc1ccc(F)cc1F)[C@H](NC(=S)Nc1cc(C(F)(F)F)cc(C(F)(F)F)c1)c1ccccc1` [BL-918, reference compound], the p62/SQSTM1 levels was “reduction in p62/SQSTM1 levels”.
For `O=C(Nc1cc(C(F)(F)F)cc(C(F)(F)F)c1)N[C@@H](C(=O)Nc1ccc(F)cc1F)c1ccc(OCc2cn(CCOCCOCCNC(=O)C(=O)c3c(-c4ccccc4)[nH]c4ccccc34)nn2)cc1` [NZ-65, (R)-2-(3-(3,5-bis(trifluoromethyl)phenyl)ureido)-N-(2,4-difluorophenyl)-2-(4-((1-(2-(2-(2-(2-oxo-2-(2-phenyl-1H-indol-3-yl)acetamido)ethoxy)ethoxy)ethyl)-1H-1,2,3-triazol-4-yl)methoxy)phenyl) acetamide], the p62/SQSTM1 levels was “mild reductions in p62/SQSTM1”.
With `O=C(Nc1cc(C(F)(F)F)cc(C(F)(F)F)c1)N[C@@H](C(=O)Nc1ccc(F)cc1F)c1ccc(OCc2cn(CCCCCCNC(=O)C(=O)c3c(-c4ccccc4)[nH]c4ccccc34)nn2)cc1` [NZ-66, (R)-2-(3-(3,5-bis(trifluoromethyl)phenyl)ureido)-N-(2,4-difluorophenyl)-2-(4-((1-(6-(2-oxo-2-(2-phenyl-1H-indol-3-yl)acetamido)hexyl)-1H-1,2,3-triazol-4-yl)methoxy)phenyl) acetamide] the p62/SQSTM1 levels was “mild reductions in p62/SQSTM1”.

Reference: patent US20260335323A1, “CHIMERIC MOLECULE” (UCL Business Ltd, priority 2023, published 2026)
